From ChEMBL document CHEMBL1147490, “N-4-methansulfonamidobenzyl-N'-2-substituted-4-tert-butyl-benzyl thioureas as potent vanilloid receptor antagonistic ligands” (Bioorg Med Chem Lett, 2004)
pIC50: −log10 of the molar value.

These molecules were tested against T1, Vanilloid receptor (Rattus norvegicus, UniProt Q9ERZ8+Q9WUD2+O35433) (assay: In vitro induction of 45 [Ca2+] influx in rat DRG neurons (ineffective at 30 uM, partial activity)).
Type: functional

| SMILES | EC50 |
| --- | --- |
| CC(C)(C)c1ccc(CNC(=S)NCc2ccc(NS(C)(=O)=O)c(F)c2)cc1 | Partially active |
| CC(C)(C)COc1cc(C(C)(C)C)ccc1C/N=C(\S)NCc1ccc(NS(C)(=O)=O)c(F)c1 | Partially active |
| CC(C)(C)C(=O)OCc1cc(C(C)(C)C)ccc1C/N=C(\S)NCc1ccc(NS(C)(=O)=O)c(F)c1 | Partially active |
| CCCCOc1cc(C(C)(C)C)ccc1C/N=C(\S)NCc1ccc(NS(C)(=O)=O)c(F)c1 | Partially active |

The molecules below were run against T1, Vanilloid receptor (assay: In vitro inhibitory concentration was determined against [45Ca2+]- influx in rat DRG neurons).
Type: functional

| SMILES | IC50 [nM] | pIC50 |
| --- | --- | --- |
| CC(C)(C)c1ccc(C/N=C(\S)NCc2ccc(NS(C)(=O)=O)cc2)c(OCc2ccccc2)c1 | 770 | – |
| CCCCCCOc1cc(C(C)(C)C)ccc1C/N=C(\S)NCc1ccc(NS(C)(=O)=O)cc1 | 150 | – |
| COCCOc1cc(C(C)(C)C)ccc1C/N=C(\S)NCc1ccc(NS(C)(=O)=O)cc1 | 60 | – |
| NC(=O)N1CCN(c2ccccn2)CC1 | 30 | – |
| CCCCCOc1cc(C(C)(C)C)ccc1C/N=C(\S)NCc1ccc(NS(C)(=O)=O)cc1 | 70 | – |
| CC(C)(C)COc1cc(C(C)(C)C)ccc1C/N=C(\S)NCc1ccc(NS(C)(=O)=O)c(F)c1 | 66 | – |
| CC(C)(C)C(=O)Oc1cc(C(C)(C)C)ccc1C/N=C(\S)NCc1ccc(NS(C)(=O)=O)cc1 | 220 | – |
| CCCNCC(=O)N(CCC)CC(=O)N(CCC)CC(=O)O | 2000 | – |
| CCCCOc1cc(C(C)(C)C)ccc1C/N=C(\S)NCc1ccc(NS(C)(=O)=O)cc1 | 60 | – |
| CCCOc1cc(C(C)(C)C)ccc1C/N=C(\S)NCc1ccc(NS(C)(=O)=O)cc1 | 250 | – |
| COc1cc(CC/N=C(\S)NCCc2ccccc2)ccc1O | 320 | – |
| Cc1cc(CN/C(S)=N/Cc2ccc(NS(C)(=O)=O)cc2)c(COC(=O)C(C)(C)C)cc1C | – | 7.15 |
| CC(C)(C)C(=O)OCc1cc(C(C)(C)C)ccc1C/N=C(\S)NCc1ccc(NS(C)(=O)=O)c(F)c1 | 15 | – |
| CCOc1cc(C(C)(C)C)ccc1C/N=C(\S)NCc1ccc(NS(C)(=O)=O)cc1 | 1100 | – |
| CC(C)(C)C(=O)OCc1cc(C(C)(C)C)ccc1C/N=C(\S)NCc1ccc(NS(C)(=O)=O)cc1 | 70 | – |
| CC(=O)OCc1cc(C(C)(C)C)ccc1C/N=C(\S)NCc1ccc(NS(C)(=O)=O)cc1 | 580 | – |
| CC(C)Oc1cc(C(C)(C)C)ccc1C/N=C(\S)NCc1ccc(NS(C)(=O)=O)cc1 | 350 | – |
| COc1cc(C(C)(C)C)ccc1C/N=C(\S)NCc1ccc(NS(C)(=O)=O)cc1 | 2400 | – |
| CCCCOc1cc(C(C)(C)C)ccc1C/N=C(\S)NCc1ccc(NS(C)(=O)=O)c(F)c1 | 20 | – |
| COCOc1cc(C(C)(C)C)ccc1C/N=C(\S)NCc1ccc(NS(C)(=O)=O)cc1 | 500 | – |
| N/C(S)=N/N1CCCC1 | 3000 | – |
| CC(C)(C)COc1cc(C(C)(C)C)ccc1C/N=C(\S)NCc1ccc(NS(C)(=O)=O)cc1 | 60 | – |
| C=C(C)[C@]12C[C@@H](C)[C@@]34O[C@](Cc5ccccc5)(O[C@@H]1[C@@H]3C=C(COC(=O)Cc1cc(I)c(O)c(OC)c1)C[C@]1(O)C(=O)C(C)=C[C@@H]41)O2 [IODORESINIFERATOXIN] | 4000 | – |
